In patent US20240360102A1, “PYRIMIDINE-4,6-DIAMINE DERIVATIVE, A PREPARATION METHOD THEREFOR, AND A PHARMACEUTICAL APPLICATION THEREOF” (Abbisko Therapeutics Co., Ltd., priority 2021, published 2024):

Columns and labels:
[1] = target: Ba/F3 EGFR-L858R-C797S (Homo sapiens, UniProt P00533, C797S/L858R, cells depend on it); assay: Cell proliferation study (CellTiter-Glo), Ba/F3 EGFR-L858R-C797S; format: cell-based; conditions: 72 hrs, CTG, read-out: L858R/C797S IC50
Experimental: (§1) • DMEM medium (Gibco, 11965118) • RPMI1640 medium (Gibco, 11875119) • Fetal bovine serum (FBS) (GBICO, Cat #10099-141) • CellTiter-Glo® luminescent cell viability assay kit (Promega, Cat #G7572) • Black transparent flat-bottom 96-well plate (Corning®, Cat #3603)
(§2) • SpectraMax multi-label microplate reader MD, 2104-0010A; • Carbon dioxide incubator, Thermo Scientific 3100 series; • Biological safety cabinet, Thermo Scientific, 1300 series model A2; • Inverted microscope, Olympus, CKX41SF; • Siemens refrigerator, KK25E76TI.
(§3) • (1) Cells in the logarithmic growth phase were harvested and counted using a […]. The cell viability was determined by the trypan blue dye exclusion method to ensure cell viability above 90%. • (2) The cell concentration was adjusted to reach a desired final density; 90 μL of cell suspension was added to a 96-well plate. • (3) The cells were incubated overnight in the 96-well plate at 37° C., 5% CO2 and with 95% humidity.
(§4) • (1) 10 μL of PBS was added to each well of the TO plate containing the cells, • (2) The CTG reagent was thawed and the cell plate was equilibrated to room temperature for 30 min. • (3) An equal volume of CTG solution was added to each well. • (4) The cells were lysed by shaking on an orbital shaker for 5 min. • (5) The cell plate was left to stand at room temperature for 20 min to stabilize the fluorescence signal. • (6) The fluorescence signal values of TO were read.
(§5) • (1) According to the compound information table, a corresponding volume of DMSO was added to the corresponding compound powder to prepare a 10 mM stock solution. • (2) A 1000-fold, 3.16-fold-diluted compound solution was prepared. • (3) The 1000× diluted compound solution was diluted 100-fold with PBS to prepare a 10-fold compound solution with a maximum concentration of 10 μM, including 9 concentrations, with 3.16-fold dilution, and 10 μL of the medicament solution was added to each well of the 96-well plate to seed the cells. Triplicate wells were set for each compound concentration, with a final concentration of DMSO being 0.1%. • (4) The cells were placed in the 96-well plate containing the medicament at 37° C., 5% CO2 and with 95% humidity, and cultured for 72 hrs before CTG analysis,
(§6) • (1) The CTG reagent was thawed and the cell plate was equilibrated to room temperature for 30 min. • (2) An equal volume of CTG solution was added to each well. • (3) The cells were lysed by shaking on an orbital shaker for 5 min. • (4) The cell plate was left to stand at room temperature for 20 min to stabilize the fluorescence signal. • (5) The fluorescence values were read.
(§7) Data were analyzed using GraphPad Prism 7.0 software and fitted data were regressed using non-linear S-curves to obtain dose-response curves from which IC50 values (in nM) were calculated.

[2] = target: Ba/F3 EGFR-Del19-C797S (Homo sapiens, UniProt P00533, C797S, cells depend on it, form not given); assay: Cell proliferation study (CellTiter-Glo), Ba/F3 EGFR-Del19-C797S; format: cell-based; conditions: 72 hrs, CTG, read-out: Del19/C797S IC50
Experimental: as §1, §2, §3, §4, §5, §6, §7

[3] = target: Ba/F3 EGFR-Del19 (Homo sapiens, UniProt P00533, cells depend on it, form not given); assay: Cell proliferation study (CellTiter-Glo), Ba/F3 EGFR-Del19; format: cell-based; conditions: 72 hrs, CTG, read-out: Del19 IC50
Experimental: as §1, §2, §3, §4
as §5, with “Triplicate wells were set for each compound concentration, with a final concentration of DMSO being 0.1%. • (4) The cells were placed in the 96-well plate containing the medicament at 37° C., 5% CO2 and with 95% humidity, and cultured for 72 hrs before CTG analysis,” left out
as §6, §7

[4] = system: A431; assay: Cell proliferation study (CellTiter-Glo), A431 WT; format: cell-based; conditions: Homo sapiens, A-431; A431 cells, 72 hrs, CTG
Experimental: as §1, §2, §3, §4, §5, §6, §7

[5] = target: Ba/F3 EGFR-L858R (Homo sapiens, UniProt P00533, L858R, cells depend on it); assay: Cell proliferation study (CellTiter-Glo), Ba/F3 EGFR-L858R; format: cell-based; conditions: 72 hrs, CTG, read-out: L858R IC50
Experimental: as §1, §2, §3, §4
as §5, with “Triplicate wells were set for each compound concentration, with a final concentration of DMSO being 0.1%. • (4) The cells were placed in the 96-well plate containing the medicament at 37° C., 5% CO2 and with 95% humidity, and cultured for 72 hrs before CTG analysis,” left out
as §6, §7

[6] = system: EGFR-Mutated Advanced Non-Small-Cell Lung Cancer; conditions: patients, untreated EGFR-mutated advanced NSCLC; cited from earlier work

Ba/F3 EGFR-L858R-C797S, sequence (P00533 whole entry C797S/L858R): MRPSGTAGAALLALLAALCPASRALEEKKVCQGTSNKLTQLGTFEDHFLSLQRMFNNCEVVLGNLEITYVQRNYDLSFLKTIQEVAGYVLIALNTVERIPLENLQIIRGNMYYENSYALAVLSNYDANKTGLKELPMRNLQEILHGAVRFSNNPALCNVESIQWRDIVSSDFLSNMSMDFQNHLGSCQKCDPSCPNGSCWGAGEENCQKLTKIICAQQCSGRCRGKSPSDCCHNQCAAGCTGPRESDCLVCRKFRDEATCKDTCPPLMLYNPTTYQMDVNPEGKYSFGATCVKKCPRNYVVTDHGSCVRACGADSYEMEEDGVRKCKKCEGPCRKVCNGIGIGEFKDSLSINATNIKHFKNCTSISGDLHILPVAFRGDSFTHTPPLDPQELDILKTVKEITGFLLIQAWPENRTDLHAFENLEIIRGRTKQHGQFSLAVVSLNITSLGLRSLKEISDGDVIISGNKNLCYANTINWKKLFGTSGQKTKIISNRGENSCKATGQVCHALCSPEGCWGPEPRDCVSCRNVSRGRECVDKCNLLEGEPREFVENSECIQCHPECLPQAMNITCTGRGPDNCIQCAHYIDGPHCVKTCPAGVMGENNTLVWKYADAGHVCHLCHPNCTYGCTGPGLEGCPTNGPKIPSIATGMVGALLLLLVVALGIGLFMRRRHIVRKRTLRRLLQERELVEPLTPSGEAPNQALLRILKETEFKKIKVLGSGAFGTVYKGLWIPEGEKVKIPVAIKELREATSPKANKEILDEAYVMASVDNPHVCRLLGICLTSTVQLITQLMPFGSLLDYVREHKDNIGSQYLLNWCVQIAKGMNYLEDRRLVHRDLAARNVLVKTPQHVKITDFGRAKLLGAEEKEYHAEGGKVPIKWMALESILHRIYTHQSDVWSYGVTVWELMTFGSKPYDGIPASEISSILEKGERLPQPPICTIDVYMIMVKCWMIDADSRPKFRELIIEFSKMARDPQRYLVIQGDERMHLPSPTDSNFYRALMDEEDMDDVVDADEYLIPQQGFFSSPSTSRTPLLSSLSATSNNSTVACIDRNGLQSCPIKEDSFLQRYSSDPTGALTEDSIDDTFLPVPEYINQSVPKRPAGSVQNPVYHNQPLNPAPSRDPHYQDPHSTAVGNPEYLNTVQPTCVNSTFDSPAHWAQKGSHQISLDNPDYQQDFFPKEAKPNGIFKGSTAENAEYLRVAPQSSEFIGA
Ba/F3 EGFR-Del19, sequence (P00533 with tags, fused parts or gaps DEL746-750): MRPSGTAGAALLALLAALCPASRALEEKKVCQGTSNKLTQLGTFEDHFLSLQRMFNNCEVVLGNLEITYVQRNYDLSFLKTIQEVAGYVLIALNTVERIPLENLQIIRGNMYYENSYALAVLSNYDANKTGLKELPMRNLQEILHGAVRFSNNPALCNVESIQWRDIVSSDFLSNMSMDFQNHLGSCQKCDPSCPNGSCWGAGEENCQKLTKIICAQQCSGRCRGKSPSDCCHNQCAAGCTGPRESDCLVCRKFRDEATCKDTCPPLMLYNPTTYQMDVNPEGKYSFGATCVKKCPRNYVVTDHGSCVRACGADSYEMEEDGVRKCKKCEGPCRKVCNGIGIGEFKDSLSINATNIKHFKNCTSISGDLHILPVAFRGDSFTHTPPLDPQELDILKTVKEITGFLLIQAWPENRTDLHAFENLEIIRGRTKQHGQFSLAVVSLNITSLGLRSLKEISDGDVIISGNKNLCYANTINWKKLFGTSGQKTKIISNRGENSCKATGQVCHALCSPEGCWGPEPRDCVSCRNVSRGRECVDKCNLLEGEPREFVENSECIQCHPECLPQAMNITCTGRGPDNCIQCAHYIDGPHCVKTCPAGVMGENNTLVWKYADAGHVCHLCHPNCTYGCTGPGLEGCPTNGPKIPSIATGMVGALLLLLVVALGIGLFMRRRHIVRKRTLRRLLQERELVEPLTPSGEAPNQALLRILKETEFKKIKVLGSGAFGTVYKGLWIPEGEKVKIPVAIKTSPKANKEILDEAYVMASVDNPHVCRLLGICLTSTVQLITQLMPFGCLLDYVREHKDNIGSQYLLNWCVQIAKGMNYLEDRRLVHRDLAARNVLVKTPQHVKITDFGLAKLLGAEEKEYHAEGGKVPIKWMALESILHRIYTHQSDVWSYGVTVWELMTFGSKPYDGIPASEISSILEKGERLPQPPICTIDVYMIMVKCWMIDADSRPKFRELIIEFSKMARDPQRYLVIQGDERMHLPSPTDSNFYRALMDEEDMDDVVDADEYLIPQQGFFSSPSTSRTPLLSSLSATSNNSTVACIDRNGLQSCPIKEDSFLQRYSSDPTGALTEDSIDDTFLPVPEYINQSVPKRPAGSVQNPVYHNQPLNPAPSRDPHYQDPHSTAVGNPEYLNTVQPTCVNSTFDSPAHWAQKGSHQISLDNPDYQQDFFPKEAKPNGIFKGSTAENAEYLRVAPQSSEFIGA
Ba/F3 EGFR-Del19-C797S, sequence (P00533 with tags, fused parts or gaps DEL746-750/C797S, form open): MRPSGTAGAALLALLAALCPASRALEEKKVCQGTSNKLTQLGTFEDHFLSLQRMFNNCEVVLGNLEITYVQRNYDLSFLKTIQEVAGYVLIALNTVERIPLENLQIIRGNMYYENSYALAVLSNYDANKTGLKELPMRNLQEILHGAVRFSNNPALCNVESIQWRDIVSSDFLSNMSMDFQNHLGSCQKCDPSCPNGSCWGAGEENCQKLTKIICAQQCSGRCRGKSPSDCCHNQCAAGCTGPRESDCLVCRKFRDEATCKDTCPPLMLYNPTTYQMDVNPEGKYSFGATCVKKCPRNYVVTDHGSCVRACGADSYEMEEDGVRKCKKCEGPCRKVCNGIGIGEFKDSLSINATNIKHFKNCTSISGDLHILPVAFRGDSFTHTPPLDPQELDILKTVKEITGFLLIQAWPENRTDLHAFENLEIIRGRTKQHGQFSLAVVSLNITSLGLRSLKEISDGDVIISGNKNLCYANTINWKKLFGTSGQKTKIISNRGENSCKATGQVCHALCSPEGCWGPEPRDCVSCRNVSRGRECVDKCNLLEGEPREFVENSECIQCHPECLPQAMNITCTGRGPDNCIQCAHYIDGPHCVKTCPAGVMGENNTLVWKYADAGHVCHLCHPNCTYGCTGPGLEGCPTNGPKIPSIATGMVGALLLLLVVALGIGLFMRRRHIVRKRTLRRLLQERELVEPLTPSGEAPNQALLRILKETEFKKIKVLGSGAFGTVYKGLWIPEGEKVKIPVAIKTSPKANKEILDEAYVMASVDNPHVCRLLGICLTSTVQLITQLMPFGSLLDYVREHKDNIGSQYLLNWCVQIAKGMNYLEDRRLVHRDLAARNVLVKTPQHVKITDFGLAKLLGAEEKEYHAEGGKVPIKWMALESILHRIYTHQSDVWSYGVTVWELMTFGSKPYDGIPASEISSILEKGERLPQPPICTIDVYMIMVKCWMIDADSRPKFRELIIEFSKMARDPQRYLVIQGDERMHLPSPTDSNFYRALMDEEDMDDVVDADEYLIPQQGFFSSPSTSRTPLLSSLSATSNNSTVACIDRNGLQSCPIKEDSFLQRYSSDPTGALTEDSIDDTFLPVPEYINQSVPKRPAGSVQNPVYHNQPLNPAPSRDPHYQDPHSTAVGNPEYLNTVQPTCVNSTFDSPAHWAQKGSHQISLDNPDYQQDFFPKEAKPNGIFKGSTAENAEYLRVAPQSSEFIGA
Ba/F3 EGFR-L858R, sequence (P00533 whole entry L858R): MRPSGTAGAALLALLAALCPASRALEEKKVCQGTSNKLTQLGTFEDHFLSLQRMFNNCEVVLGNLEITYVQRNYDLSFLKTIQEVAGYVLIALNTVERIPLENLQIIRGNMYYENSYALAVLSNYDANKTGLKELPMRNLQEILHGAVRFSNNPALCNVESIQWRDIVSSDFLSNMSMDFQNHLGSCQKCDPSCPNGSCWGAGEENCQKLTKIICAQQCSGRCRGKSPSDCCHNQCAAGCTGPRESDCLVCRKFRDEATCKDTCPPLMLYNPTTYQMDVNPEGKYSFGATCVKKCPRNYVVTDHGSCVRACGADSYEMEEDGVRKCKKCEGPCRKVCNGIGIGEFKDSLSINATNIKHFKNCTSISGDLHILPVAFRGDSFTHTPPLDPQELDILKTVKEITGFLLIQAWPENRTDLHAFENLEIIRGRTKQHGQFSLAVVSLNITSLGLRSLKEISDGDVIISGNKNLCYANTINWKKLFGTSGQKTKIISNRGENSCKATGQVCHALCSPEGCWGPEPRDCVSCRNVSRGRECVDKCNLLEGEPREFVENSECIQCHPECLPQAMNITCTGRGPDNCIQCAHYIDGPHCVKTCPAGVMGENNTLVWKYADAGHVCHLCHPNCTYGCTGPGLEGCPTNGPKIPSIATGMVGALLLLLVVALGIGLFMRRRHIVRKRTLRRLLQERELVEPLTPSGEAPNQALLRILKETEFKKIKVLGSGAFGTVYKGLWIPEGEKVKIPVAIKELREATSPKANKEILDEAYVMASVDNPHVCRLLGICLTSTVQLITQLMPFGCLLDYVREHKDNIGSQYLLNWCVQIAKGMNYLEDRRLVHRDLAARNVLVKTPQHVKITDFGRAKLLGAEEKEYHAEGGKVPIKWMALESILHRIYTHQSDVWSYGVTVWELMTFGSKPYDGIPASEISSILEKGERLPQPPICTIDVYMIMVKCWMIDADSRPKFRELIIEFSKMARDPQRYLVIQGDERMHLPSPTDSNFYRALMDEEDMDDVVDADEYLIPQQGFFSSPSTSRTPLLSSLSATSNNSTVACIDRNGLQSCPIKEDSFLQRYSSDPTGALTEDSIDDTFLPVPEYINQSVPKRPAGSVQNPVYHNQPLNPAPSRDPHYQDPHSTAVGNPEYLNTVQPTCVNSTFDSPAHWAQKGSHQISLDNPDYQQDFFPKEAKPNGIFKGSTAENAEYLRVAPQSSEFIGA

SMILES	GI50 [1] [nM]	GI50 [2] [nM]	GI50 [3] [nM]	IC50 [4] [nM]	GI50 [5] [nM]	overall survival [6] [months]	progression-free survival [6] [months]
CCOc1cc(N2CCC(N3CCN(C)CC3)CC2)c(C)cc1Nc1cc(Nc2ccnc(-c3ccccc3F)c2)ncn1 [Example 3, N^4-(2-ethoxy-5-methyl-4-(4-(4-methylpiperazin-1-yl)piperidin-1-yl)phenyl)-N^6-(2-(2-fluorophenyl)pyridin-4-yl)pyrimidine-4,6-diamine]	23.3	–	–	217	–	–	–
Cc1cc(Nc2cc(Nc3ccnc(-c4ccccc4F)c3)ncn2)c(OCC(F)(F)F)cc1N1CCC(N2CCN(C)CC2)CC1 [Example 5, N^4-(2-(2-fluorophenyl)pyridin-4-yl)-N^6-(5-methyl-4-(4-(4-methylpiperazin-1-yl)piperidin-1-yl)-2-(2,2,2-trifluoroethoxy)phenyl)pyrimidine-4,6-diamine]	53.2	–	–	–	–	–	–
CCc1cc(Nc2cc(Nc3ccnc(-c4ccccc4F)c3)ncn2)c(OC)cc1N1CCC(N2CCN(C)CC2)CC1 [Example 6, N^4-(5-ethyl-2-methoxy-4-(4-(4-methylpiperazin-1-yl)piperidin-1-yl)phenyl)-N^6-(2-(2-fluorophenyl)pyridin-4-yl)pyrimidine-4,6-diamine]	32.1	23.7	–	1080	–	–	–
COc1cc(N2CCC(N3CCN(C)CC3)CC2)c(C(C)C)cc1Nc1cc(Nc2ccnc(-c3ccccc3F)c2)ncn1 [Example 7, N^4-(2-(2-fluorophenyl)pyridin-4-yl)-N^6-(5-isopropyl-2-methoxy-4-(4-(4-methylpiperazin-1-yl)piperidin-1-yl)phenyl)pyrimidine-4,6-diamine]	69.1	–	–	2500	–	–	–
COc1cc(N2CCC(N3CCN(C)CC3)CC2)c(C2CC2)cc1Nc1cc(Nc2ccnc(-c3ccccc3F)c2)ncn1 [Example 8, N^4-(5-cyclopropyl-2-methoxy-4-(4-(4-methylpiperazin-1-yl)piperidin-1-yl)phenyl)-N^6-(2-(2-fluorophenyl)pyridin-4-yl)pyrimidine-4,6-diamine]	40	34.6	–	1660	–	–	–
COc1cc(N2CCC(N3CCN(C)CC3)CC2)c(-c2cnn(C)c2)cc1Nc1cc(Nc2ccnc(-c3ccccc3F)c2)ncn1 [Example 9, N^4-(2-(2-fluorophenyl)pyridin-4-yl)-N^6-(2-methoxy-5-(1-methyl-1H-pyrazol-4-yl)-4-(4-(4-methylpiperazin-1-yl)piperidin-1-yl)phenyl)pyrimidine-4,6-diamine]	68.6	–	–	1520	–	–	–
COc1cc(N2CCOCC2)c(-c2cnn(C)c2)cc1Nc1cc(Nc2ccnc(-c3ccccc3F)c2)ncn1 [Example 10, N^4-(2-(2-fluorophenyl)pyridin-4-yl)-N^6-(2-methoxy-5-(1-methyl-1H-pyrazol-4-yl)-4-morpholinophenyl)pyrimidine-4,6-diamine]	117	–	–	–	–	–	–
COc1cc(N2CCN(C)CC2)c(-c2cnn(C)c2)cc1Nc1cc(Nc2ccnc(-c3ccccc3F)c2)ncn1 [Example 11, N^4-(2-(2-fluorophenyl)pyridin-4-yl)-N^6-(2-methoxy-5-(1-methyl-1H-pyrazol-4-yl)-4-(4-methylpiperazin-1-yl)phenyl)pyrimidine-4,6-diamine]	72.6	–	–	306	–	–	–
COc1cc(N2CCC(N3CCN(C)CC3)CC2)c(C)cc1Nc1cc(Nc2cncc(-c3ccccc3F)c2)ncn1 [Example 12, N^4-(5-(2-fluorophenyl)pyridin-3-yl)-N^6-(2-methoxy-5-methyl-4-(4-(4-methylpiperazin-1-yl)piperidin-1-yl)phenyl)pyrimidine-4,6-diamine]	77.4	–	–	2340	–	–	–
COc1cc(N2CCC(N3CCN(C)CC3)CC2)c(F)cc1Nc1cc(Nc2ccnc(-c3ccccc3F)c2)ncn1 [Example 13, N^4-(5-fluoro-2-methoxy-4-(4-(4-methylpiperazin-1-yl)piperidin-1-yl)phenyl)-N^6-(2-(2-fluorophenyl)pyridin-4-yl)pyrimidine-4,6-diamine]	22.8	16.9	–	182	–	–	–
CN1CCN(C2CCN(c3cc(Cl)c(Nc4cc(Nc5ccnc(-c6ccccc6F)c5)ncn4)cc3Cl)CC2)CC1 [Example 17, N^4-(2,5-dichloro-4-(4-(4-methylpiperazin-1-yl)piperidin-1-yl)phenyl)-N^6-(2-(2-fluorophenyl)pyridin-4-yl)pyrimidine-4,6-diamine]	87.8	85	–	1060	–	–	–
Cc1cc(Nc2cc(Nc3ccnc(-c4ccccc4F)c3)ncn2)c(Cl)cc1N1CCC(N2CCN(C)CC2)CC1 [Example 18, N^4-(2-chloro-5-methyl-4-(4-(4-methylpiperazin-1-yl)piperidin-1-yl)phenyl)-N^6-(2-(2-fluorophenyl)pyridin-4-yl)pyrimidine-4-diamine]	21.7	25.1	–	984	–	–	–
C=CC(=O)Nc1cc(Nc2nccc(-c3cn(C)c4ccccc34)n2)c(OC)cc1N(C)CCN(C)C [osimertinib]	–	–	–	–	–	38.6	18.9

Continued, in another order:

GI50 [1] [nM]	GI50 [2] [nM]	GI50 [3] [nM]	IC50 [4] [nM]	GI50 [5] [nM]	SMILES	overall survival [6] [months]	progression-free survival [6] [months]
9.1	3.7	3.4	182	3	COc1cc(N2CCC(N3CCN(C)CC3)CC2)c(C)cc1Nc1cc(Nc2ccnc(-c3ccccc3F)c2)ncn1 [Example 1, N^4-(2-(2-fluorophenyl)pyridin-4-yl)-N^6-(2-methoxy-5-methyl-4-(4-(4-methylpiperazin-1-yl)piperidin-1-yl)phenyl)pyrimidine-4,6-diamine]	–	–
10.4	17.4	2.8	554	2.9	COc1cc(N2CCC(N3CCOCC3)CC2)c(C)cc1Nc1cc(Nc2ccnc(-c3ccccc3F)c2)ncn1 [Example 2, N^4-(2-(2-fluorophenyl)pyridin-4-yl)-N^6-(2-methoxy-5-methyl-4-(4-morpholinopiperidin-1-yl)phenyl)pyrimidine-4,6-diamine]	–	–
12.1	12.7	6.6	237	6.2	Cc1cc(Nc2cc(Nc3ccnc(-c4ccccc4F)c3)ncn2)c(OC(F)F)cc1N1CCC(N2CCN(C)CC2)CC1 [Example 4, N^4-(2-(difluoromethoxy)-5-methyl-4-(4-(4-methylpiperazin-1-yl)piperidin-1-yl)phenyl)-N^6-(2-(2-fluorophenyl)pyridin-4-yl)pyrimidine-4,6-diamine]	–	–
21.4	21.9	–	228	–	COc1cc(N2CCC(N3CCN(C)CC3)CC2)c(Cl)cc1Nc1cc(Nc2ccnc(-c3ccccc3F)c2)ncn1 [Example 14, N^4-(5-chloro-2-methoxy-4-(4-(4-methylpiperazin-1-yl)piperidin-1-yl)phenyl)-N^6-(2-(2-fluorophenyl)pyridin-4-yl)pyrimidine-4,6-diamine]	–	–
18.3	–	–	181	–	COc1cc(N2CCC(N3CCN(C)CC3)CC2)c(Br)cc1Nc1cc(Nc2ccnc(-c3ccccc3F)c2)ncn1 [Example 15, N^4-(5-bromo-2-methoxy-4-(4-(4-methylpiperazin-1-yl)piperidin-1-yl)phenyl)-N-(2-(2-fluorophenyl)pyridin-4-yl)pyrimidine-4,6-diamine]	–	–
11.3	12.9	3.1	177	3.9	CCN1CCN(C2CCN(c3cc(OC)c(Nc4cc(Nc5ccnc(-c6ccccc6F)c5)ncn4)cc3C)CC2)CC1 [Example 16, N^4-(4-(4-(4-ethylpiperazin-1-yl)piperidin-1-yl)-2-methoxy-5-methylphenyl)-N^6-(2-(2-fluorophenyl)pyridin-4-yl)pyramidine-4,6-diamine]	–	–
